GI50 and TGI data for 13 compounds are collected here from PubChem BioAssay (NCI).

Several values for one entry are separate records, joined by “and”; a condition that tells them apart may be missing. Equal entries are not always repeated.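 Five concentrations, 48 hours, 96-well plates. Here, GI50 denotes the concentration required for 50% inhibition of growth. The concentration for full growth arrest is given as TGI.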 Where only a bound is given, the exact number is not on record here.

Common to all, as to test: NCI tumour cell line growth inhibition, 48 h
Assay [1] relates to OVCAR-3 ovarian.
Assay [2] deals with MDA-MB-231 breast.
Assay [3] has as its system OVCAR-5 ovarian.
Assay [4] concerns U251 CNS.
Assay [5] has as its system LOX IMVI melanoma.
The test system of assay [6] is HL-60(TB) leukemia.
Assay [7] relates to OVCAR-4 ovarian.
Assay [8] relates to SR leukemia.
In assay [9] the test system is RXF 393 renal.
Assay [10] concerns HCC-2998 colon.

With `CN(C)c1ccc(/C=N/Nc2ccc(-c3nc4ccccc4[nH]3)cc2)cc1`, the GI50 in assay [1] was 31.7 µM; in assay [2], 13.4 µM; in assay [3], 28.9 µM; in [4], 6.3 µM; in assay [5], 4.86 µM; in assay [6], 14.6 µM. Further, the TGI in assay [1] was over 50 µM; in assay [2], 42.1 µM; in assay [3], over 50 µM; in [4], 21.5 µM; in [5], 11.6 µM; in [6] it was over 50 µM.

Take `COc1ccc(-c2nc(N)nc(-c3cc(C)ccc3O)c2Cl)cc1`: the TGI in assay [1] is 89.8 µM; in assay [7], 53.3 µM; in [3], over 100 µM; in assay [8], over 100 µM; in assay [4], over 100 µM; in assay [9] it was 99.7 µM. Moreover, the TGI in [5], in [10] and in assay [6] was over 100 µM in each case.

Regarding `Nc1ccccc1C#Cc1ccccc1C#CCCCCO`, the GI50 in assay [1] is 25.7 µM; in assay [2] it was 16.2 µM; in [7], 34.1 µM; in assay [3], 25.6 µM; in assay [4], 22.6 µM; in [9], 5.73 µM. Moreover, the GI50 in [5] is 17 µM; in assay [10] it was 14.6 µM; in assay [6], 23.2 µM. Also, the TGI in assay [1] worked out at 63.4 µM; in [2], 37 µM; in [7], 70.6 µM; in assay [3], 64.4 µM; in assay [4], 47.1 µM; in assay [9], 26.1 µM. Besides, the TGI came out at 32.6 µM in [5], 30.1 µM in assay [10] and 51.8 µM in assay [6].

For the compound `Cc1ccc(C)c(NC(=O)CCc2n[nH]c(=S)o2)c1`, the TGI in assay [1], in [7], in assay [3], in assay [8], in assay [4] and in assay [9] was over 100 µM in each case. Moreover, the TGI in [5], in assay [10] and in assay [6] was over 100 µM throughout.

Consider `C=C(C)[C@@H]1CC[C@]2(C#N)CC[C@]3(C)[C@H](CC[C@@H]4[C@@]5(C)CCCNC(C)(C)[C@@H]5CC[C@]43C)[C@@H]12`, for which the GI50 is 1.75 µM in assay [1]; 1.84 µM in assay [2]; 2.16 µM in assay [7]; 2.72 µM in assay [3]; 1.75 µM in assay [4]; 1.7 µM in assay [9]. The figures for the GI50 in assay [5] and in [10] were 1.67 µM and 1.8 µM, respectively. In addition, the TGI stood at 3.38 µM in assay [1]; 3.38 µM in assay [2]; 4.44 µM in [7]; 7.15 µM in assay [3]; 3.13 µM in assay [4]; 3.16 µM in assay [9]. Further, the TGI in [5] was determined as 3.04 µM; in assay [10], 3.24 µM.

As to `C/C(=N\NC(=S)Nc1ccc([N+](=O)[O-])cc1S(=O)(=O)O)c1ccccn1`, the TGI in assay [1] is 72.7 µM; in [7] it was 95.3 µM; in assay [3], over 100 µM; in assay [8] it was 75.6 µM; in assay [4] it was over 100 µM; in [9] it was 86.1 µM. The TGI in [5] was over 100 µM; in assay [10] it was over 100 µM; in assay [6], 84.8 µM.

As for `Cc1cc(C(=O)NCCN(C)C)c2nc3ccccc3nc2c1`, the TGI is 40.4 µM in assay [1]; 19.5 µM in [7]; 15.2 µM in assay [3]; over 100 µM in assay [8]; 33.3 µM in assay [4]; 19.7 µM in assay [9]. Further, the TGI is 9.17 µM in [5], 35.2 µM in assay [10] and over 100 µM in assay [6].

Regarding `C/C(=N\n1c(N)c(C#N)c(-c2ccc(Cl)cc2)c(C#N)c1=O)c1cccnc1`, the GI50 in assay [1], in assay [2], in assay [7], in assay [3], in assay [8] and in [4] was over 100 µM in each case. For the same compound, the GI50 in assay [5] and in [10] was over 100 µM in each case. For the same compound, the TGI in assay [1], in assay [2], in assay [7], in assay [3], in assay [8] and in assay [4] was over 100 µM each time. Moreover, the TGI in assay [5] and in assay [10] was over 100 µM throughout.

For the compound `CC(C)(C)c1ccc(C(O)(c2ccc(C(C)(C)C)cc2)c2ccc(C(C)(C)C)cc2)cc1`, the TGI in [1], in assay [2], in [7], in assay [3], in [8] and in assay [4] was over 100 µM each time. Also, the TGI in [5], in assay [10] and in assay [6] was over 100 µM each time.

Consider `S=C1OC2C3C4CC5C3C(O1)C1C5C4C21` (centres undefined), for which the TGI in assay [1], in [7], in assay [3], in assay [8], in [4] and in assay [9] was over 100 µM in each case. For the same compound, the TGI in assay [5], in [10] and in assay [6] was over 100 µM in each case.

As for `O=C1CCCc2c(O)ccc(O)c21`, the TGI was over 100 µM in [1]; over 100 µM in assay [7]; over 100 µM in assay [3]; 91.2 µM in assay [8]; over 100 µM in assay [4]; over 100 µM in assay [9]. Further, the values for the TGI in assay [5], in assay [10] and in assay [6] were over 100 µM, over 100 µM and 53.5 µM, respectively.

On to `Cc1ccc(S(=O)(=O)ON=C2CC(c3ccccc3)N(C)C(c3ccccc3)C2)cc1` (centres undefined), for which the TGI in assay [1] was 47.8 µM and 49.4 µM; in assay [7] it was 38.4 µM and 40.3 µM; in assay [3], 92.6 µM; in assay [8] it was 62.5 µM and 57.3 µM; in [4], 55.3 µM and 53.6 µM; in assay [9] it was 48 µM and 71.6 µM. The TGI in assay [5] was 27.5 µM and 26.9 µM; in assay [10] it was 32.3 µM; in assay [6] it was over 100 µM. The GI50 in assay [6] was 7.25 µM and 19.9 µM.

With `COC(=N)/C(=C1\OC(N)=C(c2ccc(Cl)cc2)C1=O)c1ccc(Cl)cc1`, the TGI in assay [1], in assay [7], in assay [3], in assay [8], in assay [4] and in assay [9] was over 100 µM each time. For the same compound, the TGI in assay [5], in assay [10] and in assay [6] was over 100 µM each time.
